Read-outs that look alike come from different tables or passages of the source.
Assays:
[1] = target: T1, Porcine pancreatic α-amylase (Sus scrofa, UniProt P00690); experiment: α-Amylase inhibitory activity; format: biochemical; settings: phenolic compounds and metabolites; IC50 ± SD
T1 construct: purchased Sigma-Aldrich Chemie GmbH
T1 sequence (P00690 16-511): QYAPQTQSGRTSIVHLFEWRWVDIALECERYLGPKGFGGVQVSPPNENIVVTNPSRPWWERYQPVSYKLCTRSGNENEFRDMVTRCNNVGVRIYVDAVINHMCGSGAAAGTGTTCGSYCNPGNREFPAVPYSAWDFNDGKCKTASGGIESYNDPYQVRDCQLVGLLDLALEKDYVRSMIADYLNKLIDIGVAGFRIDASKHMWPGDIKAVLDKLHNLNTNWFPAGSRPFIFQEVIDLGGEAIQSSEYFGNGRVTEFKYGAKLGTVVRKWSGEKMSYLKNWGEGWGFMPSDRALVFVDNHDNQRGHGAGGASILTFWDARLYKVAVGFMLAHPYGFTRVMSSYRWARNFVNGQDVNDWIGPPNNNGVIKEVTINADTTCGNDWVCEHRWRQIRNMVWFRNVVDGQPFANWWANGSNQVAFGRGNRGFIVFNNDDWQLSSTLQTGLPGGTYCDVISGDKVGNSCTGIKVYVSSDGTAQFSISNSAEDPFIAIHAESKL
Description: The α-amylase assay was performed as described by Gella, et al.. Porcine pancreatic α-amylase (EC 3.2.1.1) was purchased from Sigma-Aldrich Chemie GmbH.

[2] = target: T2, xanthine oxidase from bovine milk (Bos taurus, UniProt P80457); experiment: Inhibition of xanthine oxidase; format: biochemical; settings: for IC50: phenolic compounds and metabolites, IC50 ± SD, read-out: XO IC50; for XO inhibition (in words): up to highest concentration tested (167 µM)
T2 construct: xanthine oxidase from bovine milk; purchased Sigma-Aldrich (St. Louis, MO, USA); host or cells: bovine milk
Description: The XO inhibitory activity with hypoxanthine as the substrate was carried out previously described. Test substances were dissolved in DMSO or water.

[3] = target: T3, 15-lipoxygenase (15-LO) from soybeans (Glycine max, UniProt P08170); experiment: Inhibition of 15-lipoxygenase; format: biochemical, soybean; settings: IC50 ± SD
T3 construct: 15-lipoxygenase (15-LO) from soybeans; purchased Sigma-Aldrich (St. Louis, MO, USA); host or cells: soybeans
T3 sequence (P08170 1-839): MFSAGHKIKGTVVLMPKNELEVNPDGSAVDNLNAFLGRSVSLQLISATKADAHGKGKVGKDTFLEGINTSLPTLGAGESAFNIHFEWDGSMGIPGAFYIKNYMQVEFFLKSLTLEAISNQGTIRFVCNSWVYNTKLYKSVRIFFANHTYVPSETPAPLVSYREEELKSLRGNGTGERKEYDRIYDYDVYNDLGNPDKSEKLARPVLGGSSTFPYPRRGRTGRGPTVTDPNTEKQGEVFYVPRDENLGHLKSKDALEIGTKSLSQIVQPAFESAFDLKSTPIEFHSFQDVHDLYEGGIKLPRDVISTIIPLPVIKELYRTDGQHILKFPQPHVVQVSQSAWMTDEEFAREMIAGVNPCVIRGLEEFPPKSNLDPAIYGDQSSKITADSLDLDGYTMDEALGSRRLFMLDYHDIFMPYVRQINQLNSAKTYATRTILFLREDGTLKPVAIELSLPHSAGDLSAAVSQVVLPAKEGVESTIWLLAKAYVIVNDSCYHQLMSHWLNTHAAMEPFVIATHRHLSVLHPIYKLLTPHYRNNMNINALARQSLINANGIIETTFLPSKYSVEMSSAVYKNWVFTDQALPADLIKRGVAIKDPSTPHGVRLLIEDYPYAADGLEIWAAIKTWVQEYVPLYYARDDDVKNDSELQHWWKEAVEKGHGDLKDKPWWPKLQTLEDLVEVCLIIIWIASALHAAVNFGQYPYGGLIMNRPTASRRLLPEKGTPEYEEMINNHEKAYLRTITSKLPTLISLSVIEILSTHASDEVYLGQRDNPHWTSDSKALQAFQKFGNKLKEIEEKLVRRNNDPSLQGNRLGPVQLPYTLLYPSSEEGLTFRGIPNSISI
Description: Test substances were dissolved in DMSO or water, and the assay was carried out as previously described.

[4] = DPPH radical scavenging; settings: phenolic compounds and metabolites; IC50 ± SD
Description: Scavenging activity towards the DPPH radical was carried out as previously described. Test substances were dissolved in DMSO or water. Values were corrected for absorbance of the test substances.

[5] = target: T4, Baker's yeast α-glucosidase (Saccharomyces cerevisiae, UniProt P53341); experiment: biochemical; settings: IC50 ± SD
T4 construct: purchased Sigma-Aldrich Chemie GmbH (Steinheim, Germany)
Description: The α-glucosidase inhibitory activity of the extracts was assessed according to the method described by Ranilla, et al.. Baker’s yeast α-glucosidase (EC 3.2.1.20) was purchased from Sigma-Aldrich Chemie GmbH (Steinheim, Germany).

[6] = test system: human skeletal muscle cells; experiment: Oleic acid uptake in human myotubes ([14C]-oleic acid); format: cell-based; settings: for oleic acid uptake (in words): 10 µM; for increase in oleic acid uptake: 10 µM (highest concentration tested), 2 days, vs 0.1% DMSO control
Description: Figure 3 Effects of elderflower extracts, constituents and metabolites on oleic acid uptake in human myotubes. Myotubes were treated with (A) 12.5, 25 and 50 µg/mL of different crude extracts; (B,C) 0.1, 1 and 10 µM of elderflower phenolic compounds and metabolites for 2 days. Thereafter, the cells were exposed to [^14C]-oleic acid (37 kBq, 100 µM) for 4 h as described in Materials and Methods. A synthetic liver X receptor (LXR) agonist T0901317 (10 μM) was used as positive control. The figures show [^14C]-oleic acid uptake given as means ± SEM (n = 3) from separate experiments. * p < 0.05 vs. control (0.1% DMSO).
(§1) Satellite cells were isolated from the Musculus obliquus internus abdominis of four healthy donors, age 34.8 (±19) years, body mass index 22.9 (±2.7) kg/m^2, fasting glucose 4.9 (±0.6) mM, insulin, plasma lipids and blood pressure within normal range and no family history of diabetes. The muscle biopsies were obtained with informed consent and approval by the National Committee for Research Ethics (Oslo, Norway). The cells were cultured on 96-well CellBIND microplates DMEM-Glutamax (5.5 mM glucose), 2% fetal bovine serum, 2% Ultroser G, penicillin (100 units/mL), streptomycin (100 μg/mL) and amphotericin B (1.25 μg/mL) for proliferation. At 70%–80% confluence, the growth medium was replaced by DMEM-Glutamax (5.5 mM glucose) supplemented with 2% fetal bovine serum, penicillin (100 units/mL), streptomycin (100 μg/mL), amphotericin B (1.25 μg/mL) and insulin (25 pM), to induce differentiation. The cells were cultured in humidified 5% CO2 atmosphere at 37 °C, and the medium was changed every 2–3 days. Experiments were performed after 7 days of differentiation. 22-S-hydroxycholesterol (22-SHC) (10 µM) was used as positive control in the glucose uptake assay. The positive control used in the oleic acid assay is the synthetic liver X receptor (LXR) agonist T0901317 (10 µm).
(§2) Cells were exposed to test samples solved in 0.1% DMSO that were added directly to the medium for 2 days for myotubes and 24 h for HepG2 cells. Thereafter, cells were exposed to [^14C(U)]-glucose (1 μCi/mL, 100 μM) or [^14C]-oleic acid (37 kBq, 100 µM) for 4 h. A 96-well UniFilter-96 GF7B microplate (Perkin Elmer, Waltham, MA, USA) was mounted on top of the CellBIND plate (Corning Life-Sciences (Schiphol-Rijk, The Netherlands) and CO2 production was measured. After incubation the cells were washed twice with ice-cold phosphate buffered saline (PBS), lysed in 0.1 M NaOH, and radioactivity measured by liquid scintillation counting. The protein content of each sample was determined and glucose uptake was calculated using protein levels for standardization.

[7] = test system: human skeletal muscle cells; experiment: Glucose uptake in human myotubes ([14C(U)]-glucose); format: cell-based; settings: for increase in glucose uptake: 10 µM, 2 days, vs 0.1% DMSO control, mean ± SEM
Description: Figure 2 Effects of elderflower extracts, constituents and metabolites on glucose uptake in human myotubes. Myotubes were treated with (A) 12.5, 25 and 50 µg/mL of different crude extracts; (B,C) 0.1, 1 and 10 µM of elderflower phenolic compounds and metabolites for 2 days. Thereafter, the cells were exposed to [^14C(U)]-glucose (1 μCi/mL, 100 μM) for 4 h as described in the Materials and Methods section. 22-S-hydroxycholesterol (22-SHC) (10 μM) was used as positive control. The figures show [^14C(U)]-glucose uptake given as means ± standard error of the mean (SEM) (n = 3) from separate experiments. * p < 0.05 vs. control (0.1% dimethyl sulfoxide (DMSO)).
as §1, §2

[8] = phenolic compounds and metabolites, read-out: 15-LO IC50
[9] = α-Glucosidase IC50, phenolic compounds and metabolites
[10] = phenolic compounds and metabolites, read-out: α-Glucosidase IC50
[11] = 10 µM (highest concentration tested)
[12] = 15-LO IC50, phenolic compounds and metabolites

T2 sequence (P80457 whole entry): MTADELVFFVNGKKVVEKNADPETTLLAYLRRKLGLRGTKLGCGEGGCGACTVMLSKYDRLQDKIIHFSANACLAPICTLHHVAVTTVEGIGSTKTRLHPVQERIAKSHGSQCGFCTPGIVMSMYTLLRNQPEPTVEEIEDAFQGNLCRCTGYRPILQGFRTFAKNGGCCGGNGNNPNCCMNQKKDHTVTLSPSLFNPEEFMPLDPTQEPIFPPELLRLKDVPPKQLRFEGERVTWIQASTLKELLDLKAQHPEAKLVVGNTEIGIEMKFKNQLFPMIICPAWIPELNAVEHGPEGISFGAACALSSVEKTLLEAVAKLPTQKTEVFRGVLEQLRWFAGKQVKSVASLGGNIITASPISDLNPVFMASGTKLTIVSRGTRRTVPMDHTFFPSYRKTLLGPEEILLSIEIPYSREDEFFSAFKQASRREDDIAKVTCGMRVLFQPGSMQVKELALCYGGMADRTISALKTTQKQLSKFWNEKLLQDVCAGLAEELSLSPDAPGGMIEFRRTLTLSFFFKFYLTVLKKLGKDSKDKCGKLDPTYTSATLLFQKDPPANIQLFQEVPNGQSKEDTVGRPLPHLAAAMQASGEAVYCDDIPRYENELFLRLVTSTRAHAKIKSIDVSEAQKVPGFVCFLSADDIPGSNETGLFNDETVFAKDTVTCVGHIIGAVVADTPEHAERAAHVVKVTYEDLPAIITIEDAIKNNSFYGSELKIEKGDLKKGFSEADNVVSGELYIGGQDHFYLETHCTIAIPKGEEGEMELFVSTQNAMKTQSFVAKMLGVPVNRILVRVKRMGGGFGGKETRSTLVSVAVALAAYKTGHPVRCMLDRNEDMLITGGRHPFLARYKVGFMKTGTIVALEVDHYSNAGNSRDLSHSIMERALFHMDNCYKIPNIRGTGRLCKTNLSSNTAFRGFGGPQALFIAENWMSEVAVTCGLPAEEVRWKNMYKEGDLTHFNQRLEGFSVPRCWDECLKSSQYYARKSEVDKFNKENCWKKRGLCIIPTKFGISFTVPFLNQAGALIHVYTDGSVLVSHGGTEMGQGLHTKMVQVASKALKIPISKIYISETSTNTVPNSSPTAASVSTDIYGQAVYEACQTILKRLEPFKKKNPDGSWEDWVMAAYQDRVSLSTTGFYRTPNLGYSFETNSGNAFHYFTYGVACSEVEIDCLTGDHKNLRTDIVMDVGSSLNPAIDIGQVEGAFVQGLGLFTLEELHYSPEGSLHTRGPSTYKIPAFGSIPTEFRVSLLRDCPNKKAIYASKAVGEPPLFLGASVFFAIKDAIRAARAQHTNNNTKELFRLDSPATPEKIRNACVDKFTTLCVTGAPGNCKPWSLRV
T4 sequence (P53341 whole entry): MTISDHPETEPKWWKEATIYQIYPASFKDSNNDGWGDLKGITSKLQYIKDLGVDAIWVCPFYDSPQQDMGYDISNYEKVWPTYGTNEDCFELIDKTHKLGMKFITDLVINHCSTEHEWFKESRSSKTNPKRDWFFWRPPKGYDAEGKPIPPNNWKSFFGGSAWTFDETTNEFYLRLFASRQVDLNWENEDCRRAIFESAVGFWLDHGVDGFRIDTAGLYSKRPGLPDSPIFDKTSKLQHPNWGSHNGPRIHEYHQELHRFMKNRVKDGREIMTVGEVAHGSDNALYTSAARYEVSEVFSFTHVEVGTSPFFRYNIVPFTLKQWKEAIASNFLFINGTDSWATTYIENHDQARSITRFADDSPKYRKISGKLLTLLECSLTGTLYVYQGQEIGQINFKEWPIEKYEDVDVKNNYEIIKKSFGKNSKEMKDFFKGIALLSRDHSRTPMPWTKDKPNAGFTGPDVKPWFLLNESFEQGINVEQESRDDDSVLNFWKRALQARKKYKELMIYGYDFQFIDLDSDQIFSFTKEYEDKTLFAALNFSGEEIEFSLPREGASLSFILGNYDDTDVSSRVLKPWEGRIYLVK

| SMILES | IC50 [1] | IC50 [2] | IC50 [3, 8] | IC50 [4] | IC50 [5, 9] | XO inhibition (in words) [2] | oleic acid uptake (in words) [6] | IC50 [5, 10] | glucose uptake (in words) [7, 11] | increase in glucose uptake [7] | increase in oleic acid uptake [6] | IC50 [3, 12] | glucose uptake (in words) ([7]; 0.1 and 1 µM, compared to DMSO control) |
| --- | --- | --- | --- | --- | --- | --- | --- | --- | --- | --- | --- | --- | --- |
| C[C@@H]1O[C@@H](OC[C@H]2O[C@@H](Oc3c(-c4ccc(O)c(O)c4)oc4cc(O)cc(O)c4c3=O)[C@H](O)[C@@H](O)[C@@H]2O)[C@H](O)[C@H](O)[C@H]1O [Rutin, Quercetin-3-rutinoside] | 4.1 ± 0.8 µM | 42.9 ± 2.9 µM | 99.3 ± 1.1 µM | 22.5 ± 1.6 µM | 4.6 ± 2.3 µM |  |  |  |  |  |  |  |  |
| O=C(O)Cc1ccc(O)c(O)c1 [3,4-Dihydroxyphenylacetic acid] | 74.9 ± 1.7 µM | > 167 µM | 135 ± 7.3 µM | 116 ± 1.4 µM |  | inactive | small but significant increase | 78.5 ± 1.6 µM | small increase |  |  |  |  |
| Oc1cc(O)c2c(c1)O[C@H](c1ccc(O)c(O)c1)[C@H](O)C2 [Epicatechin] | 9.7 ± 2.1 µM | > 167 µM | 116 ± 7.9 µM | 15.6 ± 2.3 µM |  | did not inhibit |  | 12.1 ± 2.3 µM |  |  |  |  |  |
| O=C1C[C@@H](c2ccc(O)cc2)Oc2cc(O)cc(O)c21 [Naringenin] | 6.2 ± 1.1 µM | 95.1 ± 4.5 µM | 124 ± 3.5 µM | 23.3 ± 1.4 µM |  |  |  |  |  |  |  |  |  |
| CC1OC(OCC2OC(Oc3c(-c4ccc(O)cc4)oc4cc(O)cc(O)c4c3=O)C(O)C(O)C2O)C(O)C(O)C1O (centres unmarked) [Kaempferol-3-rutinoside] | 19.1 ± 0.5 µM | 63.8 ± 2.1 µM | 109 ± 5.6 µM | 30.6 ± 3.9 µM | 23.9 ± 1.1 µM |  |  |  |  | 29.7% ± 2.5% |  |  |  |
| O=C(C=Cc1ccc(O)c(O)c1)OC1CC(O)(C(=O)O)CC(O)C1O (centres unmarked) [Neochlorogenic acid] | 15.4 ± 3.2 µM | 26.2 ± 3.1 µM | 115 ± 5.8 µM |  |  |  |  |  |  |  |  |  |  |
| O=C(O)Cc1cccc(O)c1 [3-Hydroxyphenylacetic acid] | 44.8 ± 5.3 µM | > 167 µM | 134 ± 5.8 µM | 125 ± 4.8 µM |  | inactive | small but significant increase | 68.9 ± 3.8 µM | small increase |  |  |  |  |
| Cc1ccc(O)c(O)c1 [4-Methylcatechol] | 94.8 ± 6.8 µM | > 167 µM | 129 ± 5.2 µM | 40.5 ± 3.6 µM |  | inactive | small but significant increase | 98.9 ± 3.5 µM | small increase |  |  |  |  |
| COc1cc(-c2oc3cc(O)cc(O)c3c(=O)c2OC2OC(COC3OC(C)C(O)C(O)C3O)C(O)C(O)C2O)ccc1O (centres unmarked) [Isorhamnetin-3-rutinoside] | 26.2 ± 0.7 µM | 125 ± 3.9 µM | 115 ± 6.2 µM | 85 ± 2.1 µM |  |  |  | 25.2 ± 2.9 µM |  | 10.0% ± 3.6% |  |  |  |
| O=c1c(OC2OC(CO)C(O)C(O)C2O)c(-c2ccc(O)c(O)c2)oc2cc(O)cc(O)c12 (centres unmarked) [Quercetin-3-glucoside] | 3 ± 1.2 µM | 106 ± 5.3 µM |  | 17.6 ± 3.2 µM | 4.1 ± 1.9 µM |  |  |  |  |  | 13.1% ± 3.5% |  |  |
| CC1OC(Oc2c(-c3ccc(O)c(O)c3)oc3cc(O)cc(O)c3c2=O)C(O)C(O)C1O (centres unmarked) [Quercetin-3-rhamnoside] | 3.5 ± 0.9 µM | 105 ± 4.6 µM | 108 ± 4.6 µM | 19.1 ± 2.1 µM | 3.9 ± 1.4 µM |  |  |  |  |  | 5.0% ± 6.0% |  |  |
| O=C(O)/C=C/c1ccc(O)c(O)c1 [Caffeic acid] |  | 107 ± 3.2 µM |  | 90.3 ± 4.3 µM | 18.5 ± 0.9 µM |  |  |  |  |  |  |  |  |
| O=C(O)c1ccccc1 [Benzoic acid] |  | > 167 µM |  | 145 ± 5.8 µM | 129 ± 3.8 µM | inactive |  |  |  |  |  | 138 ± 6.5 µM | inactive |
| COc1cc(-c2oc3cc(O)cc(O)c3c(=O)c2O)ccc1O [Isorhamnetin] |  |  |  | 63.3 ± 2.3 µM | 8.1 ± 3.1 µM |  |  |  |  | 18.8% ± 4.3% |  | 103 ± 2.4 µM |  |
| Oc1cc(O)c2c(c1)O[C@H](c1ccc(O)c(O)c1)[C@@H](O)C2 [Catechin] | 14.1 ± 0.8 µM | > 167 µM |  | 19 ± 1.1 µM |  | did not inhibit |  | 18.5 ± 2.2 µM |  |  |  |  |  |

— article PMC6155811, “Effect of Phenolic Compounds from Elderflowers on Glucose- and Fatty Acid Uptake in Human Myotubes and HepG2-Cells” (Molecules : A Journal of Synthetic Chemistry and Natural …, 2017)
